Data as given in the NIST ThermoML archive (doi:10.1021/je034290l).

How the values were obtained:
[1] = Liquid
[2] = refractive index (Na D-line) (dimensionless); conditions: 299.15 K; 101.33 kPa; Liquid; Standard Abbe refractometry

COC=O [methyl methanoate]
Conditions	mass density [kg/m3]
[1], 299.15 K, 101.33 kPa	964.78

[1]
Conditions	vapor or sublimation pressure [kPa]
301.23 K	88.7
301.42 K	89.37
301.78 K	90.67
302.15 K	91.98
302.53 K	93.31
302.89 K	94.64
303.41 K	95.98
303.77 K	97.36
304.13 K	98.69
304.44 K	99.97
304.79 K	101.32
304.83 K	101.39
305.21 K	102.89
305.51 K	104.06
305.85 K	105.38
306.2 K	106.72
306.54 K	108.06
306.84 K	109.39
307.2 K	110.77
307.54 K	112.13
307.85 K	113.44
308.13 K	114.75
308.47 K	116.1
308.81 K	117.47
309.15 K	118.77
309.43 K	120.12
309.72 K	121.43
310.03 K	122.74
310.33 K	124.08
310.64 K	125.47
310.92 K	126.77
311.19 K	128.14
311.48 K	129.44
311.78 K	130.75
312.06 K	132.09
312.37 K	133.48
312.67 K	134.81
312.9 K	136.09
313.17 K	137.42
313.45 K	138.75
313.74 K	139.83
314.01 K	141.42
314.3 K	142.78
314.37 K	143.32
314.6 K	144.13
314.63 K	144.65
314.88 K	145.45
314.93 K	145.65
315.12 K	146.74
315.18 K	147.03
315.52 K	148.79
315.56 K	149.41
315.77 K	150.23
316 K	151.48
316.06 K	152.08
316.23 K	152.97
316.47 K	154.04
316.57 K	154.75
316.71 K	155.22
316.95 K	156.54
317.05 K	157.42
317.17 K	157.73
317.36 K	158.92
317.4 K	159.14
317.64 K	160.45
317.88 K	161.72
318 K	162.65
318.34 K	164.18
318.51 K	165.32
318.68 K	166.44
319.07 K	168.3
319.37 K	170
319.45 K	170.76
319.67 K	171.98
319.93 K	173.32
320.22 K	174.76
320.34 K	175.82
320.65 K	177.38
320.78 K	178.57
321.04 K	180.01
321.34 K	181.7
321.46 K	182.37
321.72 K	184.02
321.94 K	185.46
322.2 K	186.83

Conditions	refractive index
[2]	1.3402
